Laboratory results published in EPA's ToxValDB 9.5 (doi:10.2903/j.efsa.2019.5732).

Assays:
Bibionidae = settings: chronic/long-term; duration: 28 days; seedling emergence
Pontoscolex corethrurus = settings: chronic/long-term; growth
Canidae = settings: chronic; duration: 1 years; oral; Dog Other; organ weight
Oryctolagus sp. = settings: developmental; development
Folsomia candida = settings: chronic/long-term; mortality
Apis mellifera = settings: acute, mortality
Mus musculus = settings: chronic; duration: 18 months; mortality
Daphnia magna = settings: chronic/long-term; duration: 21 days; reproduction

With `CC(COc1ccc(Oc2ccccc2)cc1)Oc1ccccn1` (centres undefined) [Pyriproxyfen] the NOEC (Bibionidae) was 3.1 µg/L, the NOEC (Pontoscolex corethrurus) was 50 mg/kg and the NOAEL (Canidae) was 10 mg/kg-day. The NOAEL (Oryctolagus sp.) was 100 mg/kg-day, the NOEC (Folsomia candida) was 12.5 mg/kg and the LD50 (Apis mellifera; dermal) was > 100 µg/piece. For the same compound, the LD50 (Apis mellifera; oral, unspecified) was 74 µg/piece, the LD50 (Anas platyrhynchos; acute, oral, unspecified, mortality) was > 1910 mg/kg-day and the NOEC (Anas platyrhynchos; chronic/long-term) was 70.2 mg/kg-day. The LC50 (Anas platyrhynchos; short-term, oral, feed, mortality) was > 1260 mg/kg-day, the LOAEL (Mus musculus) was 16.4 mg/kg-day and the NOEC (Daphnia magna) was 0.015 µg/L. For the same compound, the LD50 (Rattus norvegicus; acute, oral, mortality) was > 5000 mg/kg-day and the NOAEL (Rattus norvegicus; reproduction developmental, organ weight) was 13.3 mg/kg-day.
